Data reported in ChEMBL document CHEMBL5154808, “Novel β-Hairpin Antimicrobial Peptides Containing the β-Turn Sequence of -RRRF- Having High Cell Selectivity and Low Incidence of Drug Resistance” (J Med Chem, 2022).
Activity calls are given as the source filed them. The rule behind the calls is not given here.

Experiments:
Erythrocyte = test: Hemolytic activity in mouse red blood cells assessed as release of hemoglobin incubated for 1 hr by microplate reader method; format: toxicity, cell-based
Escherichia coli [1] = test: Antimicrobial activity against Escherichia coli ATCC 25922 assessed as reduction in bacterial growth incubated for 18 hrs in presence of 150 mM NaCl by CLSI protocol based broth microdilution method (reference value: 4 uM); format: functional
Escherichia coli [2] = test: Antimicrobial activity against Escherichia coli ATCC 25922 assessed as reduction in bacterial growth incubated for 18 hrs in presence of 4.5 mM KCl by CLSI protocol based broth microdilution method (reference value: 4 uM); format: functional
Escherichia coli [3] = test: Antimicrobial activity against Escherichia coli ATCC 25922 assessed as reduction in bacterial growth incubated for 18 hrs in presence of 4 uM FeCl3 by CLSI protocol based broth microdilution method (reference value: 4 uM); format: functional
Escherichia coli [4] = test: Antimicrobial activity against Escherichia coli ATCC 25922 assessed as reduction in bacterial growth incubated for 18 hrs in presence of 10% serum by CLSI protocol based broth microdilution method (reference value: 4 uM); format: functional
Escherichia coli [5] = test: Antimicrobial activity against Escherichia coli ATCC 25922 assessed as fold change in MIC incubated for 18 hrs in presence of 150 mM NaCl by CLSI protocol based broth microdilution method relative to control; format: functional
Escherichia coli [6] = test: Antimicrobial activity against Escherichia coli ATCC 25922 assessed as fold change in MIC incubated for 18 hrs in presence of 4 uM FeCl3 by CLSI protocol based broth microdilution method relative to control; format: functional
Staphylococcus aureus [7] = test: Antimicrobial activity against Staphylococcus aureus ATCC 25923 assessed as reduction in bacterial growth incubated for 18 hrs in presence of 10% serum by CLSI protocol based broth microdilution method (reference value: 4 uM); format: functional
Staphylococcus aureus [8] = test: Antimicrobial activity against Staphylococcus aureus ATCC 25923 assessed as reduction in bacterial growth incubated for 18 hrs in presence of 1 mM MgCl2 by CLSI protocol based broth microdilution method (reference value: 4 uM); format: functional
Staphylococcus aureus [9] = test: Antimicrobial activity against Staphylococcus aureus ATCC 25923 assessed as reduction in bacterial growth incubated for 18 hrs in presence of 4.5 mM KCl by CLSI protocol based broth microdilution method (reference value: 4 uM); format: functional
Staphylococcus aureus [10] = test: Antimicrobial activity against Staphylococcus aureus ATCC 25923 assessed as reduction in bacterial growth incubated for 18 hrs in presence of 150 mM NaCl by CLSI protocol based broth microdilution method (reference value: 4 uM); format: functional
Staphylococcus aureus [11] = test: Antimicrobial activity against Staphylococcus aureus ATCC 25923 assessed as fold change in MIC incubated for 18 hrs in presence of 4.5 mM KCl by CLSI protocol based broth microdilution method relative to control; format: functional
Staphylococcus aureus [12] = test: Antimicrobial activity against Staphylococcus aureus ATCC 25923 assessed as reduction of bacterial growth at 2 times MIC incubated for 18 hrs in presence of chymotrypsin by CLSI protocol based broth microdilution method; format: functional, organism-based
Staphylococcus aureus [13] = test: Antimicrobial activity against rifampicin-resistant Staphylococcus aureus ATCC 25923; format: functional
Escherichia coli [14] = test: Antimicrobial activity against kanamycin-resistant Escherichia coli ATCC 25922; format: functional
Staphylococcus aureus [15] = test: Synergistic antibacterial activity against meropenem-resistant Staphylococcus aureus ATCC 25923 assessed as fractional inhibitory concentration index incubated for 18 hrs in presence of meropenem by checker board assay; format: functional
Staphylococcus aureus [16] = test: Synergistic antibacterial activity against polymyxin B-resistant Staphylococcus aureus ATCC 25923 assessed as fractional inhibitory concentration index incubated for 18 hrs in presence of polymyxin B by checker board assay; format: functional
Staphylococcus aureus [17] = test: Synergistic antibacterial activity against rifampicin-resistant Staphylococcus aureus ATCC 25923 assessed as fractional inhibitory concentration index incubated for 18 hrs in presence of rifampicin by checker board assay; format: functional
Lipopolysaccharide (LPS) = test: Binding affinity to LPS (unknown origin) assessed as reduction in bactericidal activity against Escherichia coli ATCC 25922 at 2 times MIC incubated for 2 hrs in presence of 32 ug/ml of LPS by competitive binding assay
Cell membrane [18] = test: Induction of outer membrane permeabilization in Escherichia coli ATCC 25922 by NPN fluorescent dye based assay; format: subcellular; conditions: DDE = dose-dependent effect
Cell membrane [19] = test: Induction of cytoplasmic membrane depolarization in […] assessed as increase in fluorescence intensity at 1 to 4 times MIC measured after 1 min by DiSC3-5 dye based fluorescence method; format: subcellular
Cell membrane [20] = test: Induction of cytoplasmic membrane depolarization in Pseudomonas aeruginosa ATCC 27853 assessed as increase in fluorescence intensity at 1 to 4 times MIC measured after 1 min by DiSC3-5 dye based fluorescence method; format: subcellular
Staphylococcus aureus [21] = test: Antibacterial activity against Staphylococcus aureus ATCC 25923 infected BALB/c mouse assessed as reduction in alveolar constriction at 5 to 10 mg/kg, ip measured after 24 hrs by hematoxylin and eosin staining based assay; format: functional, organism-based; conditions: dose 5-10 mg/kg
Escherichia coli [22] = test: Antimicrobial activity against Escherichia coli ATCC 25922 assessed as reduction in bacterial growth incubated for 18 hrs in presence of 150 mM NaCl by CLSI protocol based broth microdilution method (reference value: 8 uM); format: functional
Escherichia coli [23] = test: Antimicrobial activity against Escherichia coli ATCC 25922 assessed as reduction in bacterial growth incubated for 18 hrs in presence of 4.5 mM KCl by CLSI protocol based broth microdilution method (reference value: 8 uM); format: functional
Escherichia coli [24] = test: Antimicrobial activity against Escherichia coli ATCC 25922 assessed as reduction in bacterial growth incubated for 18 hrs in presence of 1 mM MgCl2 by CLSI protocol based broth microdilution method (reference value: 8 uM); format: functional
Escherichia coli [25] = test: Antimicrobial activity against Escherichia coli ATCC 25922 assessed as reduction in bacterial growth incubated for 18 hrs in presence of 10% serum by CLSI protocol based broth microdilution method (reference value: 8 uM); format: functional
Staphylococcus aureus [26] = test: Antimicrobial activity against Staphylococcus aureus ATCC 25923 assessed as reduction in bacterial growth incubated for 18 hrs in presence of 4 uM FeCl3 by CLSI protocol based broth microdilution method (reference value: 8 uM); format: functional
Staphylococcus aureus [27] = test: Antimicrobial activity against Staphylococcus aureus ATCC 25923 assessed as reduction in bacterial growth incubated for 18 hrs in presence of 4.5 mM KCl by CLSI protocol based broth microdilution method (reference value: 8 uM); format: functional
Escherichia coli [28] = test: Antimicrobial activity against Escherichia coli ATCC 25922 assessed as reduction of bacterial growth at 2 times MIC incubated for 18 hrs in presence of trypsin by CLSI protocol based broth microdilution method; format: functional, organism-based
Escherichia coli [29] = test: Synergistic antibacterial activity against kanamycin-resisitant Escherichia coli ATCC 25922 assessed as fractional inhibitory concentration index incubated for 18 hrs in presence of kanamycin by checker board assay; format: functional
Escherichia coli [30] = test: Synergistic antibacterial activity against rifampicin-resistant Escherichia coli ATCC 25922 assessed as fractional inhibitory concentration index incubated for 18 hrs in presence of rifampicin by checker board assay; format: functional
[31] = Acute toxicity in Kunming mouse assessed as swelling in liver at 62 mg/kg, ip by H and E staining based analysis; format: organism-based; conditions: in vivo

Substance	HC10 (Erythrocyte) [µM]	fold change (FC) (Escherichia coli [5])	fold change (FC) (Escherichia coli [6])	fold change (FC) (Staphylococcus aureus [11])	Activity (Staphylococcus aureus [12])	MIC (Staphylococcus aureus [13]) [µM]	MIC (Escherichia coli [14]) [µM]	Activity (Lipopolysaccharide (LPS))	Activity (Cell membrane [18])	Activity (Cell membrane [19])	Activity (Cell membrane [20])	Activity (Staphylococcus aureus [21])	also measured
H-RIRIRRRRFRIRIR-NH2	> 256	4	2	1	Active	4	4	Active	Dde	Active	Active	Active	MIC (Escherichia coli [1]): 16 µM; MIC (Escherichia coli [2]): 8 µM; MIC (Escherichia coli [3]): 8 µM; MIC (Escherichia coli [4]): 4 µM; MIC (Staphylococcus aureus [7]): 8 µM; MIC (Staphylococcus aureus [8]): 8 µM; MIC (Staphylococcus aureus [9]): 4 µM; MIC (Staphylococcus aureus [10]): 8 µM; fractional inhibitory concentration index (FICI) (Staphylococcus aureus [15]): 0.375; fractional inhibitory concentration index (FICI) (Staphylococcus aureus [16]): 0.3125; fractional inhibitory concentration index (FICI) (Staphylococcus aureus [17]): 0.375
H-KWKWKRRRFKWKWK-NH2	> 256	1	1	1	Active	4	4	Active	Dde	Active	Active	Active	MIC (Escherichia coli [22]): 8 µM; MIC (Escherichia coli [23]): 8 µM; MIC (Escherichia coli [24]): 8 µM; MIC (Escherichia coli [25]): 8 µM; MIC (Staphylococcus aureus [26]): 8 µM; MIC (Staphylococcus aureus [27]): 8 µM; Activity (Escherichia coli [28]): Active; fractional inhibitory concentration index (FICI) (Escherichia coli [29]): 0.3125; fractional inhibitory concentration index (FICI) (Escherichia coli [30]): 0.5625; Activity [31]: Toxic
